Experimental data as given in ChEMBL document CHEMBL1201862, “PubChem BioAssay data set” (2004).
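96-well plates; 48 h exposure; 5 concentrations. Endpoints by linear interpolation between flanking doses. Not reached: highest tested concentration assigned. At the GI50, growth is halved.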 Calls of active or inactive are those of the source. No stated cut-off is given here; in the data, active = GI50 up to about 1.1 µM and inactive = higher.

Columns and labels:
Experiment in all cases: NCI anticancer screen, dose series, 48 h
SK-OV-3 = tested on: SK-OV-3
SN12C = tested on: SN12C
MDA-MB-231 = tested on: MDA-MB-231
EKVX = tested on: EKVX
HCT-116 = tested on: HCT-116
NCI-H522 = tested on: NCI-H522
ACHN = tested on: ACHN
SK-MEL-28 = tested on: SK-MEL-28
HOP-62 = tested on: HOP-62
M14 = tested on: M14
PC-3 = tested on: PC-3
TK-10 = tested on: TK-10
NCI-H460 = tested on: NCI-H460
RPMI-8226 = tested on: RPMI-8226
Hs-578T = tested on: Hs-578T
U-251 = tested on: U-251
CAKI-1 = tested on: CAKI-1
UACC-62 = tested on: UACC-62
MDA-N = tested on: MDA-N
HOP-92 = tested on: HOP-92

## COc1cc(C(c2ccc3c(c2)OCO3)C2SCCCS2)cc(OC)c1OC (centres undefined)
SK-OV-3
  GI50: 2.81 µM (inactive)
SN12C
  GI50: 2.51 µM (inactive)
MDA-MB-231
  GI50: 2.3 µM (inactive)
EKVX
  GI50: 2.79 µM (inactive)
HCT-116
  GI50: 2.59 µM (inactive)
NCI-H522
  GI50: 2.11 µM (inactive)
ACHN
  GI50: 5.52 µM (inactive)
SK-MEL-28
  GI50: 4.91 µM (inactive)
HOP-62
  GI50: 3.03 µM (inactive)
M14
  GI50: 3.6 µM (inactive)
PC-3
  GI50: 3.6 µM (inactive)
TK-10
  GI50: 5.2 µM (inactive)
NCI-H460
  GI50: 1.58 µM (inactive)
RPMI-8226
  GI50: 3.27 µM (inactive)
Hs-578T
  GI50: 2.33 µM (inactive)
U-251
  GI50: 3.01 µM (inactive)
CAKI-1
  GI50: 2.67 µM (inactive)
UACC-62
  GI50: 2.75 µM (inactive)
MDA-N
  GI50: 0.372 µM (active)

## CCOC(=O)c1nc2ccccc2nc1Nc1ccc(Cl)c(Cl)c1
SK-OV-3
  GI50: 27.7 µM (inactive)
SN12C
  GI50: 81.5 µM (inactive)
MDA-MB-231
  GI50: > 100 µM (inactive)
HOP-92
  GI50: 16.8 µM (inactive)
EKVX
  GI50: 60.5 µM (inactive)
HCT-116
  GI50: 29 µM (inactive)
NCI-H522
  GI50: 45.7 µM (inactive)
ACHN
  GI50: 76.7 µM (inactive)
SK-MEL-28
  GI50: > 100 µM (inactive)
HOP-62
  GI50: 30.4 µM (inactive)
M14
  GI50: 57.8 µM (inactive)
TK-10
  GI50: 31.4 µM (inactive)
NCI-H460
  GI50: 11 µM (inactive)
RPMI-8226
  GI50: 57.7 µM (inactive)
Hs-578T
  GI50: 34.4 µM (inactive)
U-251
  GI50: 23.7 µM (inactive)
CAKI-1
  GI50: 24.5 µM (inactive)
UACC-62
  GI50: 25.6 µM (inactive)
MDA-N
  GI50: 68.1 µM (inactive)

## COc1cc(COC(=O)N2CCC2C(=O)O)c([N+](=O)[O-])cc1OC (centres undefined)
SK-OV-3
  GI50: > 100 µM (inactive)
SN12C
  GI50: > 100 µM (inactive)
HOP-92
  GI50: > 100 µM (inactive)
EKVX
  GI50: > 100 µM (inactive)
HCT-116
  GI50: > 100 µM (inactive)
ACHN
  GI50: > 100 µM (inactive)
SK-MEL-28
  GI50: > 100 µM (inactive)
HOP-62
  GI50: > 100 µM (inactive)
M14
  GI50: > 100 µM (inactive)
PC-3
  GI50: > 100 µM (inactive)
TK-10
  GI50: > 100 µM (inactive)
NCI-H460
  GI50: > 100 µM (inactive)
RPMI-8226
  GI50: > 100 µM (inactive)
Hs-578T
  GI50: > 100 µM (inactive)
U-251
  GI50: > 100 µM (inactive)
UACC-62
  GI50: > 100 µM (inactive)
MDA-N
  GI50: > 100 µM (inactive)

## CCOC(=O)/C=C1\Nc2ccccc2C12CCc1c([nH]c3ccccc13)C2C(=O)OCC (centres undefined)
SK-OV-3
  GI50: 30.2 µM (inactive)
SN12C
  GI50: 44.3 µM (inactive)
MDA-MB-231
  GI50: 18 µM (inactive)
EKVX
  GI50: 18.8 µM (inactive)
HCT-116
  GI50: 17.6 µM (inactive)
NCI-H522
  GI50: 21.5 µM (inactive)
ACHN
  GI50: 49.2 µM (inactive)
SK-MEL-28
  GI50: 61.2 µM (inactive)
HOP-62
  GI50: > 100 µM (inactive)
M14
  GI50: 25.2 µM (inactive)
PC-3
  GI50: > 100 µM (inactive)
TK-10
  GI50: 23.8 µM (inactive)
NCI-H460
  GI50: 12 µM (inactive)
RPMI-8226
  GI50: 7.52 µM (inactive)
Hs-578T
  GI50: 58.7 µM (inactive)
U-251
  GI50: > 100 µM (inactive)
CAKI-1
  GI50: 11.7 µM (inactive)
UACC-62
  GI50: 59.3 µM (inactive)
MDA-N
  GI50: 7.85 µM (inactive)

## CC(C)=C1C(=O)C[C@]2(C)C[C@H]3O[C@]3(C)CC[C@@H]3O[C@@]3(C)CC[C@@H]12
SK-OV-3
  GI50: > 50 µM (inactive)
SN12C
  GI50: > 50 µM (inactive)
MDA-MB-231
  GI50: > 50 µM (inactive)
HOP-92
  GI50: > 50 µM (inactive)
EKVX
  GI50: > 50 µM (inactive)
HCT-116
  GI50: > 50 µM (inactive)
NCI-H522
  GI50: 34 µM (inactive)
ACHN
  GI50: > 50 µM (inactive)
SK-MEL-28
  GI50: > 50 µM (inactive)
HOP-62
  GI50: > 50 µM (inactive)
M14
  GI50: > 50 µM (inactive)
PC-3
  GI50: > 50 µM (inactive)
TK-10
  GI50: > 50 µM (inactive)
NCI-H460
  GI50: > 50 µM (inactive)
RPMI-8226
  GI50: > 50 µM (inactive)
Hs-578T
  GI50: > 50 µM (inactive)
U-251
  GI50: > 50 µM (inactive)
CAKI-1
  GI50: > 50 µM (inactive)
UACC-62
  GI50: > 50 µM (inactive)

## CN(Cc1cnc2nc(N)nc(N)c2n1)c1ccc(C(=O)NC(CO)CCCO)cc1 (centres undefined)
SK-OV-3
  GI50: > 100 µM (inactive)
SN12C
  GI50: > 100 µM (inactive)
MDA-MB-231
  GI50: > 100 µM (inactive)
EKVX
  GI50: > 100 µM (inactive)
HCT-116
  GI50: > 100 µM (inactive)
ACHN
  GI50: > 100 µM (inactive)
SK-MEL-28
  GI50: > 100 µM (inactive)
HOP-62
  GI50: > 100 µM (inactive)
M14
  GI50: > 100 µM (inactive)
PC-3
  GI50: > 100 µM (inactive)
TK-10
  GI50: > 100 µM (inactive)
NCI-H460
  GI50: > 100 µM (inactive)
RPMI-8226
  GI50: > 100 µM (inactive)
Hs-578T
  GI50: > 100 µM (inactive)
U-251
  GI50: > 100 µM (inactive)
CAKI-1
  GI50: > 100 µM (inactive)
UACC-62
  GI50: > 100 µM (inactive)
MDA-N
  GI50: > 100 µM (inactive)

## O=S1(=O)c2ccccc2NC(=S)CC1c1ccccc1 (centres undefined)
SK-OV-3
  GI50: > 100 µM (inactive)
SN12C
  GI50: > 100 µM (inactive)
MDA-MB-231
  GI50: > 100 µM (inactive)
EKVX
  GI50: > 100 µM (inactive)
HCT-116
  GI50: > 100 µM (inactive)
NCI-H522
  GI50: > 100 µM (inactive)
ACHN
  GI50: > 100 µM (inactive)
SK-MEL-28
  GI50: > 100 µM (inactive)
HOP-62
  GI50: > 100 µM (inactive)
M14
  GI50: > 100 µM (inactive)
PC-3
  GI50: > 100 µM (inactive)
TK-10
  GI50: > 100 µM (inactive)
NCI-H460
  GI50: > 100 µM (inactive)
RPMI-8226
  GI50: > 100 µM (inactive)
Hs-578T
  GI50: > 100 µM (inactive)
U-251
  GI50: > 100 µM (inactive)
CAKI-1
  GI50: > 100 µM (inactive)
UACC-62
  GI50: > 100 µM (inactive)
MDA-N
  GI50: > 100 µM (inactive)

## Cc1cc(S(=O)(=O)Nc2cc(N)n[nH]2)c(SCc2nc(N)nc(N(C)C)n2)cc1Cl
SK-OV-3
  GI50: > 10 µM (inactive)
SN12C
  GI50: > 10 µM (inactive)
HOP-92
  GI50: > 10 µM (inactive)
EKVX
  GI50: > 10 µM (inactive)
HCT-116
  GI50: > 10 µM (inactive)
NCI-H522
  GI50: > 10 µM (inactive)
ACHN
  GI50: > 10 µM (inactive)
SK-MEL-28
  GI50: > 10 µM (inactive)
HOP-62
  GI50: > 10 µM (inactive)
M14
  GI50: > 10 µM (inactive)
PC-3
  GI50: > 10 µM (inactive)
TK-10
  GI50: > 10 µM (inactive)
NCI-H460
  GI50: > 10 µM (inactive)
RPMI-8226
  GI50: > 10 µM (inactive)
Hs-578T
  GI50: > 10 µM (inactive)
U-251
  GI50: > 10 µM (inactive)
CAKI-1
  GI50: > 10 µM (inactive)
MDA-N
  GI50: > 10 µM (inactive)

## CSCCCNC(=O)c1csc(-c2csc(CCN)n2)n1
SK-OV-3
  GI50: > 100 µM (inactive)
SN12C
  GI50: 68.1 µM (inactive)
MDA-MB-231
  GI50: 52.5 µM (inactive)
HOP-92
  GI50: > 100 µM (inactive)
EKVX
  GI50: > 100 µM (inactive)
HCT-116
  GI50: 84.5 µM (inactive)
NCI-H522
  GI50: > 100 µM (inactive)
ACHN
  GI50: > 100 µM (inactive)
SK-MEL-28
  GI50: > 100 µM (inactive)
HOP-62
  GI50: > 100 µM (inactive)
M14
  GI50: > 100 µM (inactive)
PC-3
  GI50: > 100 µM (inactive)
TK-10
  GI50: > 100 µM (inactive)
NCI-H460
  GI50: 91 µM (inactive)
RPMI-8226
  GI50: 44.7 µM (inactive)
Hs-578T
  GI50: 56.8 µM (inactive)
U-251
  GI50: > 100 µM (inactive)
CAKI-1
  GI50: > 100 µM (inactive)
UACC-62
  GI50: > 100 µM (inactive)

## C=CCOCn1cnc2c(=O)[nH]c(N)nc21
SK-OV-3
  GI50: > 100 µM (inactive)
SN12C
  GI50: > 100 µM (inactive)
MDA-MB-231
  GI50: > 100 µM (inactive)
EKVX
  GI50: > 100 µM (inactive)
HCT-116
  GI50: > 100 µM (inactive)
ACHN
  GI50: > 100 µM (inactive)
SK-MEL-28
  GI50: > 100 µM (inactive)
HOP-62
  GI50: > 100 µM (inactive)
M14
  GI50: > 100 µM (inactive)
PC-3
  GI50: > 100 µM (inactive)
TK-10
  GI50: > 100 µM (inactive)
NCI-H460
  GI50: > 100 µM (inactive)
RPMI-8226
  GI50: > 100 µM (inactive)
Hs-578T
  GI50: > 100 µM (inactive)
U-251
  GI50: > 100 µM (inactive)
CAKI-1
  GI50: > 100 µM (inactive)
UACC-62
  GI50: > 100 µM (inactive)
MDA-N
  GI50: > 100 µM (inactive)

## COC(=O)CN(CC1O[C@@H]2OC(C)(C)O[C@@H]2C1N=[N+]=[N-])C(=O)OCc1ccccc1 (some centres undefined)
SK-OV-3
  GI50: > 100 µM (inactive)
SN12C
  GI50: > 100 µM (inactive)
MDA-MB-231
  GI50: > 100 µM (inactive)
HOP-92
  GI50: > 100 µM (inactive)
EKVX
  GI50: > 100 µM (inactive)
HCT-116
  GI50: > 100 µM (inactive)
NCI-H522
  GI50: > 100 µM (inactive)
ACHN
  GI50: > 100 µM (inactive)
SK-MEL-28
  GI50: > 100 µM (inactive)
HOP-62
  GI50: > 100 µM (inactive)
M14
  GI50: > 100 µM (inactive)
PC-3
  GI50: > 100 µM (inactive)
TK-10
  GI50: > 100 µM (inactive)
NCI-H460
  GI50: > 100 µM (inactive)
RPMI-8226
  GI50: > 100 µM (inactive)
Hs-578T
  GI50: 16 µM (inactive)
U-251
  GI50: > 100 µM (inactive)
CAKI-1
  GI50: > 100 µM (inactive)
UACC-62
  GI50: > 100 µM (inactive)
